Results reported in patent publication US20050261319A1, “Novel 2-amino-4-quinazolinones and 2-amino-4-oxoquinazolones as LXR nuclear receptor binding compounds with partial agonistic properties” (priority 2002, published 2005).
pEC50: −log10 of the molar value.

Tests used:
human LXRalpha LBD = biological target: T1, human LXRalpha LBD (Homo sapiens, UniProt Q13133, A196R); experiment: In vitro screening for LXR binding to coactivator Tif2 (LANCE TR-FRET); assay type: biochemical
T1 construct: from amino acids 155 of hLXRalpha to 447; made in house; host or cells: SF9 insect cells (baculovirus) for LXRalpha LBD; E. coli BL21 for Tif2 fragment
T1 sequence (Q13133 155-447 A196R): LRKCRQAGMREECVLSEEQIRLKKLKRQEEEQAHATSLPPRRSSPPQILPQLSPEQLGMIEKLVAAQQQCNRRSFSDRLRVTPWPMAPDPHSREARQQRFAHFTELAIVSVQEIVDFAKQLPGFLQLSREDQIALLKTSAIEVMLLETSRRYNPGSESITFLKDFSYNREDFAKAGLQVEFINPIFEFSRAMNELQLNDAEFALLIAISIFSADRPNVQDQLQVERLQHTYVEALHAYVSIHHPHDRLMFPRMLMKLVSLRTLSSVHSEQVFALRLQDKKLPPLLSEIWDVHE
T1 sequence (Q15596 548-878 partner limits assumed): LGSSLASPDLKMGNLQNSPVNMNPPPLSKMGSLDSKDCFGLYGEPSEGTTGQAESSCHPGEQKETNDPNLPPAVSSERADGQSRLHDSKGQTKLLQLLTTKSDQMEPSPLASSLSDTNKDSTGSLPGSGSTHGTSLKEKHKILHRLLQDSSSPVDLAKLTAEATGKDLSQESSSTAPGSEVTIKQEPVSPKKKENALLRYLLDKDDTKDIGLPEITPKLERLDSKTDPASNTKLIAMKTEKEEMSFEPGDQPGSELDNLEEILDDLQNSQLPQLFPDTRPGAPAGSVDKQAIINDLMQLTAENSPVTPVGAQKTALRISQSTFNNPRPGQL
Source text: For screening purposes a GST and 6× His fusion of the LBD (from amino acids 155 of hLXRalpha to 447) of human LXRalpha was constructed by first cloning a Gateway cassette (Invitrogen) in frame into the Sma I site of the pAGGHLT Polylinker (Pharmingen). Then a PCR fragment specifically amplified from human liver cDNA was cloned into the resulting pACGHLT-GW following the manufacturers instructions for Gateway cloning (Invitrogen) to yield pACGHLT-GW-hLXRalphaLBD.
100% sequence integrity of all recombinant products was verified by sequencing. Recombinant Baculovirus was constructed from pACGHLT-GW-hLXRalphaLBD using the Pharmingen Baculovirus Expression vector system according to instructions of the manufacturer. Monolayer cultures of SF9 cells were infected by the virus as recommended by Pharmingen or 200 ml cultures of 1×10^6 cells/ml grown in 2 liter Erlenmeyer flasks on an orbital shaker at 30 rpm were infected by 10 ml of same virus stock. In both cases cells were harvested 3 days after infection. All cell growth was performed in Gibco SF900 II with Glutamine (Invitrogen) medium without serum supplementation at 28° C. Since SF9 cells contain significant amounts of endogenous 30 GST, purification was performed via His and not via GST affinity chromatography.
To this end instructions of Pharmingen for purification of recombinant His tagged proteins from SF9 cells were followed with the following modifications: All detergents were omitted from the buffers and cells were lysed on ice by 5 subsequent sonication pulses using a sonicator needle at maximum power.
All eluates were dialyzed against 20 mM Tris/HCl pH 6.8, 300 mM KCl; 5 mM MgCl2;1 mM DTT; 0.2 mM PMSF; 10% Glycerol. A typical dialyzed eluate fraction contained the fusion protein at a purity of more than 80%. Total protein concentration was 0.1-0.3 mg/ml.
For E. coli expression of a NR coactivator, pDest17-hTif2BD expressing an NR interaction domain from amino acids 548-878 of human Tif2 (Acc. No: XM011633 Ref Seq) tagged by 6 N-terminal His residues was constructed. Therefore, a PCR fragment specifically amplified from human liver cDNA was subcloned into pDest 17 (Invitrogen) following the manufacturers instructions for Gateway cloning (Invitrogen). Primers used for Amplification were: […]
For E. coli expression plasmid DNA was transformed into chemically competent E. coli BL21 (Invitrogen, USA) and cells were grown to an OD600 of 0.4-0.7 before expression was induced by addition of 0.5 mM IPTG according instructions of the manufacturer (Invitrogen). After induction for 8 hours at 30° C. cells were harvested by centrifugation for 10 minutes at 5000×g. Fusion proteins were affinity purified using Ni—NTA Agarose (QIAGEN) according to the instructions of the manufacturer.
Recombinant Tif2 construct was dialyzed against 20 mM Tris/HCL pH 7.9; 60 mM KCl; 5 mM MgCl2; 1 mM DTT, 0.2 mM PMSF; 10% glycerol. A typical dialyzed eluate fraction contained the fusion protein at a purity of more than 80%. Total protein concentration was 0.1-0.3 mg/ml.
The TIF2 fragment was subsequently biotinylated by addition of 5-40 ul/ml Tif2 fraction of a Biotinamidocaproate N-Hydroxysuccinimide-ester (Sigma) solution (20 mg/ml in DMSO). Overhead rotating samples were incubated for 2 hours at room temperature. Unincorporated label was then separated using G25 Gel filtration chromatography (Pharmacia Biotech, Sweden). Protein containing fractions from the column were pooled and tested for activity in the assay as described below.
For screening of compound libraries as provided for by the methods shown below in the examples for substances which influence the LXR/Tif 2 interaction, the PerkinElmer LANCE technology is applied. This method relies on the binding dependent energy transfer from a donor to an acceptor fluorophore attached to the binding partners of interest. […]

Gal4DBD-LXRb = biological target: T2, Gal4DBD-LXRb (Homo sapiens, UniProt P55055); experiment: pFR-luc reporter transactivation in CHO cells, Gal4DBD-LXRb; assay type: cell-based; settings: 16 h, 0.032 to 50 uM
T2 construct: expressed in transfected cells; host or cells: CHO
T2 sequence (P55055 222-460 limits assumed): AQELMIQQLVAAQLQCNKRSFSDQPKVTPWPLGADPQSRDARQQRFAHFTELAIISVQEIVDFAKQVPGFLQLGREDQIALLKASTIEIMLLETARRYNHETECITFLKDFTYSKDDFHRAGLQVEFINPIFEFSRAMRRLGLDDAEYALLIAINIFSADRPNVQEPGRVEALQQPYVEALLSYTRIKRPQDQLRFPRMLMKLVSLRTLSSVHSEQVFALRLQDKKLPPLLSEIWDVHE
Experimental: (§1) CHO cells (1×10^5 cells 96 well plate) were co-transfected (Lipofectamine 2000 GIBCO) with pFR-luc (Stratagene) as a reporter gene construct and pCMV-AD derivatives containing the LXRa or LXRb ligand binding domains, which were cloned via the gateway system (GIBCO) described in Example 1, in order to express Gal4DBD-LXRa or Gal4DBD-LXRb fusion proteins.
(§2) Cells were grown in DMEM containing 10% FCS at 37° C. in 5% humidified CO2 for 16 h in presence of 0.05% DMSO vehicle or 0.032 to 50 uM LN0000006500 in vehicle (as indicated in FIG. 9). Luciferase activity was determined from aliquots of extracts prepared from cells following standard luciferase assay kits and protocols from Promega.

HepG2 liver cells = experiment: Triglyceride assay in HepG2 cells; assay type: cell-based; settings: 24 h, 25 pM
Experimental: Methods: Cultures of the monocyte-macrophage cell line and the hepatocytes HepG2 are obtained from the American Type tissue Culture Collection, Rockville, Md. and were grown in RPMI 1640 medium supplemented with 10% fetal bovine serum, 10 mM HEPES, 2 mM pyruvate, 50 uM (3-Mercaptoethanol (THP-1) and Minimum essential medium (Eagle) with 2 mM L-glutamine and Earle's BSS supplemented with 10% fetal bovine serum, 2 mM glutamin, 0.1 mM non-essential amino acids, 1 mM sodium pyruvate (HepG2), respectively, at 37° C. in 5% CO2.
For cholesterol efflux measurements and triglyceride analysis cells are seeded in 6 well plates at 1.8×10^6 cells (THP-1) and 1×10^6 cells (HepG2) per well, respectively.
TRIGLYCERIDE ASSAY HepG2 cells are seeded in poly-L-Lysine coated 6 well plates at 1×10^6 cells per well in EMEM medium containing 10% FCS until they were appr. 60% confluent. Before treatment with LXR compounds growth medium is changed to medium containing 10% charcoal/dextran-stripped FCS for 12 h. Treatment is done for 24 h in medium containing 10% charcoal/dextran-stripped FCS. Cells are washed twice with ice-cold PBS/0.2% BSA and twice with cold PBS and all liquid carefully removed. Triglyceride are extracted with 1.5 ml hexane/isopropanol=3: 2 per well with gentle shaking for 2-3 h at RT according to Pan et al. (2002) JBC277, 4413-4421 and Goti et al. (1998) Biochem J, 332, 57-65. The extraction solution is collected, dried under vacuum and redissolved in isopropanol/1.5% triton. The remaining cellular proteins are lysed with 0.3 N NaOH and protein content measured with the Biorad Bradford reagent.
Triglyceride levels are measured as esterified glycerol using a commercial enzymatic colorimetric kit (Sigma 343-25P). In a preliminary assay it is checked by omitting the lipase enzyme that contribution of free glycerol is negligible.

THP-1 macrophages = experiment: Cholesterol efflux from differentiated THP-1 macrophages; assay type: cell-based; settings: ApoA1, 10 uM, 24 h
Experimental: Methods: Cultures of the monocyte-macrophage cell line and the hepatocytes HepG2 are obtained from the American Type tissue Culture Collection, Rockville, Md. and were grown in RPMI 1640 medium supplemented with 10% fetal bovine serum, 10 mM HEPES, 2 mM pyruvate, 50 uM (3-Mercaptoethanol (THP-1) and Minimum essential medium (Eagle) with 2 mM L-glutamine and Earle's BSS supplemented with 10% fetal bovine serum, 2 mM glutamin, 0.1 mM non-essential amino acids, 1 mM sodium pyruvate (HepG2), respectively, at 37° C. in 5% CO2. THP-1 cells are differentiated into macrophages by addition of 100 nM Phorbol 12-Myristate 13-Acetate (PMA; Sigma P8139) and PMA included in the medium of all subsequent experiments to maintain differentiation. For cholesterol efflux measurements and triglyceride analysis cells are seeded in 6 well plates at 1.8×10^6 cells (THP-1) and 1×10^6 cells (HepG2) per well, respectively. CHOLESTEROL EFFLUX THP-1 cells are seeded in 6 well plates at 1×10^6 cells per well in RPMI 1640 medium containing 10% FCS and 100 nM TPA for 72 h. After washing with PBS cells are incubated 24 h with fresh in RPMI 1640 medium containing 10% FCS and 100 nM TPA. […] Medium is collected, centrifuged to remove cell debris and assayed for cholesterol using a commercial fluorometric kit (Molecular Probes A-12216). The remaining cellular proteins are lysed with 0.3 NNaOH and protein content measured with the Biorad Bradford reagent. THP-1 (1×10^6 cells per dish) cells were seeded in 6 well dishes in 3 ml modified RPMI 1640 medium (ATTC, Cat. […] After incubation for 24 hours, total cholesterol was determined from cell supernatant in each of the wells using an enzymatic assay with fluorescence read-out for the determination of cholesterol (Amplex Red Cholesterol Assay Kit (A-12213). The fluorescence readout per mg of total protein content as determined from cells that were present in the respective well are shown in FIGS. 9 or 11 as an example.

Gal4DBD-LXRa = biological target: T3, Gal4DBD-LXRa (Homo sapiens, UniProt Q13133); experiment: pFR-luc reporter transactivation in CHO cells, Gal4DBD-LXRa; assay type: cell-based; settings: 16 h, 0.032 to 50 uM
T3 construct: expressed in transfected cells; host or cells: CHO
T3 sequence (Q13133 209-447 limits assumed): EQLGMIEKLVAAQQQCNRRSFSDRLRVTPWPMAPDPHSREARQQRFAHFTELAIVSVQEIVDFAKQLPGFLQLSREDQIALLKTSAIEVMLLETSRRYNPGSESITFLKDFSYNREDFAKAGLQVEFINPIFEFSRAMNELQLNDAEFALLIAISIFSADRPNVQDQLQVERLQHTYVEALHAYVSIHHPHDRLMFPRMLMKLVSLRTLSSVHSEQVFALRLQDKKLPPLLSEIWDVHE
Experimental: as §1, §2

Question: For `CC(C)n1c(N2CC3(C)CC2CC(C)(C)C3)nc2ccc(Br)cc2c1=O` (stereo not drawn) [formula (6)], which “active as agonist / partial agonist of the LXR human nuclear receptor” value (human LXRalpha LBD) is on record?
Answer: active as agonist

Question: What does the source list for `O=S(=O)(c1ccccc1)N(CC(F)(F)F)c1ccc(C(O)(C(F)(F)F)C(F)(F)F)cc1` [T0901317, reference compound]?
Answer: transactivation of the pFR-luc reporter gene via Gal4 LBD-fusion construct derived from LXRb (Gal4DBD-LXRb): can selectively enhance transcription; triglyceride mass (HepG2 liver cells): marked increase; cholesterol export (THP-1 macrophages): marked increase; transactivation of the pFR-luc reporter gene via Gal4 LBD-fusion construct derived from LXRa (Gal4DBD-LXRa): can selectively enhance transcription

Question: How did the pEC50 (human LXRalpha LBD; FRET assay, read-out: EC50 at LXR (half-maximal effective concentration)) turn out when `C=CCn1c(N2CC3(C)CC2CC(C)(C)C3)nc2ccccc2c1=O` (stereo not drawn) [formula (4)] was run?
Answer: 6.30
